Experimental data from the CheMixHub ionic liquid set.
± gives the uncertainty stated by the source.

Test: xn = mol fraction of the nth substance listed
Details: 100 kPa

CC[N+](C)(CC)CCOC.O=S(=O)([N-]S(=O)(=O)C(F)(F)F)C(F)(F)F + CCCCn1cc[n+](C)c1C.O=S(=O)([N-]S(=O)(=O)C(F)(F)F)C(F)(F)F
electrical conductivity (293.15 K, x1 = 0.2): 0.192 ± 0.012 S/m | electrical conductivity (293.15 K, x1 = 0.5): 0.202 ± 0.012 S/m | electrical conductivity (298.15 K, x1 = 0.2): 0.256 ± 0.015 S/m | electrical conductivity (313.15 K, x1 = 0.5): 0.517 ± 0.031 S/m | electrical conductivity (313.15 K, x1 = 0.7): 0.527 ± 0.032 S/m | electrical conductivity (318.15 K, x1 = 0.2): 0.594 ± 0.036 S/m | electrical conductivity (323.15 K, x1 = 0.7): 0.755 ± 0.045 S/m | electrical conductivity (328.15 K, x1 = 0.1): 0.82 ± 0.049 S/m | electrical conductivity (328.15 K, x1 = 0.3): 0.845 ± 0.051 S/m | electrical conductivity (328.15 K, x1 = 0.4): 0.847 ± 0.051 S/m | electrical conductivity (333.15 K, x1 = 0.6): 0.999 ± 0.06 S/m | electrical conductivity (343.15 K, x1 = 0.1): 1.24 ± 0.074 S/m | electrical conductivity (343.15 K, x1 = 0.2): 1.24 ± 0.074 S/m
